These are literature values, as cited in patent US20220240500A1, “Cryopreservation compositions and methods involving nanowarming” (REGENTS OF THE UNIVERSITY OF MINNESOTA, priority 2016, published 2022).

This data set has as its system zebrafish embryos. The conditions noted are these: 2.3 M injected; previous studies.

`CC(O)CO` (stereo not shown) [Propylene Glycol]: the “survival from injection into the zebrafish embryo” value is recorded as “high survival”.
